Where “and” joins values, the source holds several entries; their conditions need not be identical. Equal values may be shown once.
Legend:
[1] = molecular target: T1, human recombinant mTOR kinase (Homo sapiens, UniProt P42345); experiment: In vitro mTOR kinase assay (K-LISA ELISA, p70S6K-GST substrate); type: biochemical
T1 construct: a purified recombinant mTOR fragment (amino acids 1360-2549, CBA104-1KIT from Calbiochem); purchased Calbiochem CBA104-1KIT
Description: The mTOR kinase inhibitory activities of the 41 final virtual hits were determined using an ELISA-based activity assays that utilize a p70S6K-GST fusion protein as a specific mTOR substrate (see the Experimental Section for details). For the initial screening, all the activities were measured at a concentration of 10 μM.
mTOR activity was evaluated using a purified recombinant mTOR fragment (amino acids 1360-2549, CBA104-1KIT from Calbiochem). The K-LISA^TM mTOR activity kit is an ELISA-based activity assay for detection of phosphorylation of a p70S6K-GST fusion protein (a specific mTOR substrate) in the presence of ATP. The assay was optimized for use with mTOR as described in the Calbiochem protocol. The assay takes place in 96-well plates and can be divided into two phases: an mTOR kinase reaction phase and phosphorylated substrate detection phase.
In the kinase reaction phase, the following components were mixed in the same well: 5 μL of a solution containing 5 μg/mL mTOR substrate (recombinant p70S6K-GST fusion protein) in Tris-buffered saline (1 L TBS: sodium chloride 8.8 g, Tris Base 2.4 g, HCl 13 mL, Tween-20 10 ml, ddH2O), 5 μL ATP solution containing 20 mM ATP diluted in kinase assay buffer (pH 7.4, 0.01% Tween 20, 1 mM EDTA, 10 mM MgCl2, 1 mM DTT), […] of human recombinant mTOR kinase at the optimal concentration (80 ng/well) diluted in kinase assay buffer, and 5 μL of serial dilutions of inhibitors diluted in DMSO and kinase assay buffer. For each inhibitor concentration, the assay was run in triplicate. The final reaction volume was 100 μL per well, and samples incubated for 30 min at room temperature.
The kinase reaction was stopped by adding 10 μL kinase stop solution to each well. The phosphorylated substrate was detected using Anti-p70S6K-pT389 antibody, followed by detection with HRP-Antibody Conjugate and TMB Substrate. Then, ELISA stop solution was added to each well to stop the reaction, and relative mTOR inhibition activity was determined by reading the absorbance at dual wavelengths of 450/540 nm.

[2] = test system: HeLa (human cervical cancer cell); experiment: In vitro cell proliferation assay; type: cell-based; settings: Homo sapiens, 48 h, highest concentration 100 μM, read-out: IC50 (anti-proliferative)
Description: (§1) Most human breast cancer cells and cervical cancer cells become resistant to current chemotherapeutic drugs due to mutation of apoptotic mechanisms. It has been reported that MCF-7 cells are resistant to most of the drugs approved by the US Food and Drug Administration (FDA), including paclitaxel, doxorubicin, 5-fluorouracil, etoposide, and camptothecin[31][32].
(§2) Cell proliferation was measured with an MTS assay (CellTiter 96 Aqueous ONE Solution kit; Promega, Madison, USA). MCF-7, HeLa, MGC-803, C6 and U87 cells in log-phase were seeded (5 × 10^3 cells/well) in 96-well plates for 24 h, and then the medium were replaced with fresh medium containing different concentrations of compounds. […] After incubation for 48 h, the cells were further incubated with 20 μL of MTS for 1–4 h at 37 °C in a humidified incubator with 5% CO2. The absorbance at 490 nm was measured using a mircoplate reader (Model680, Bio-Rad; Hercules, CA, USA). The inhibition rate (%) was calculated as equation (1): […]
(§3) IC50 values were determined from the results of at least three independent tests and calculated from the inhibition curves.

C6 (Glioma cell) = experiment: In vitro cell proliferation assay; type: cell-based; settings: C6 glioma, 48 h, highest concentration 100 μM, read-out: IC50 (anti-proliferative)
Description: as §1, §2, §3

[3] = test system: MGC-803 (human gastric cancer); experiment: In vitro cell proliferation assay; type: cell-based; settings: Homo sapiens, MGC-803, 48 h, 48 h, highest concentration 100 μM, read-out: IC50 (anti-proliferative)
Description: as §1, §2, §3

[4] = test system: MCF-7 (human breast cancer cell); experiment: In vitro cell proliferation assay; type: cell-based; settings: Homo sapiens, MCF7, 48 h, 48 h, highest concentration 100 μM, read-out: IC50 (anti-proliferative)
Description: as §1, §2, §3

[5] = test system: mTORC2 (Akt phosphorylation on Ser473) in HeLa cells; experiment: Western blot of mTORC2 activity; type: cell-based, human
Description: Accordingly, we checked mTORC2 activity by measuring Akt phosphorylation levels on Ser473 in HeLa cells. […] In other words, the mechanism of HeLa cell death induced by 17 was apoptosis, and induction was achieved by targeting both mTORC1 and mTORC2 simultaneously.
HeLa cells were cultured in a six-well plate in the presence of compound 17 for 48 h. Samples were prepared by lysing PBS-washed cells with RIPA buffer (Beyotime, Haimen, China) consisting of 1% Nonidet P-40, 0.5% sodium deoxycholate, 0.1% SDS, and 50 mM Tris-HCl, pH 7.4, supplemented with NaF, NaVO4, EDTA and a protease inhibitor cocktail (Roche). Proteins were subjected to SDS-PAGE gel electrophoresis and transferred onto a polyvinylidene difluoride membrane (Hybond-P; GE Healthcare Life Sciences, Piscataway, NJ). Immunoblotting was performed using rabbit monoclonal antibodies (Cell Signaling Technology; Danvers, MA) against p70S6K1 phosphorylated on Thr 389 (#9234) and total p70S6K1 (#2708), 4E-BP1 phosphorylated on Thr 37 (#2855) and total 4E-BP1 (#9452), Akt phosphorylated on Thr 308 (#4056) or Ser 473 (#4060) and total Akt (#4685), cleaved caspase-3 (#9664), PARP (#9532), and β-actin (#3700). […] The densitometry of each band was quantified by FluorChem 8000 (AlphaInnotech, San Leandro, CA).

HeLa cells = experiment: Quantification of apoptotic cells (Hoechst 33342 staining); type: cell-based, human; settings: 24 hours (control 1.9%)
Description: To elucidate the mechanisms of cell death induced by 17, we analyzed the effect of 17 on nuclear morphology using Hoechst 33342 staining. […] This observation allowed for clear discrimination of treated cells from untreated non-apoptotic HeLa cells, which have a normal, round, and unpunctuated nucleus. […] The percentage of apoptotic HeLa cells were 6.5% and 7.7% at the concentrations of 2.74 and 5.48 μM, respectively (Fig. 6d). To further confirm the nuclear morphology observation, Western blotting was used to detect caspase-3 activation and PARP cleavage, two biochemical markers of apoptosis. […] The induction of apoptosis is positively correlated with the concentration of compound 17.
[…] Then, the cells were collected, washed with PBS, and fixed in 4% paraformaldehyde for 15 min at room temperature. Finally, the samples were stained with Hoechst33342 (10 μg/mL) for 5 min. Stained nuclei were photographed under a fluorescence microscope with a 20× objective (Nikon).

T1 sequence (P42345 1360-2549): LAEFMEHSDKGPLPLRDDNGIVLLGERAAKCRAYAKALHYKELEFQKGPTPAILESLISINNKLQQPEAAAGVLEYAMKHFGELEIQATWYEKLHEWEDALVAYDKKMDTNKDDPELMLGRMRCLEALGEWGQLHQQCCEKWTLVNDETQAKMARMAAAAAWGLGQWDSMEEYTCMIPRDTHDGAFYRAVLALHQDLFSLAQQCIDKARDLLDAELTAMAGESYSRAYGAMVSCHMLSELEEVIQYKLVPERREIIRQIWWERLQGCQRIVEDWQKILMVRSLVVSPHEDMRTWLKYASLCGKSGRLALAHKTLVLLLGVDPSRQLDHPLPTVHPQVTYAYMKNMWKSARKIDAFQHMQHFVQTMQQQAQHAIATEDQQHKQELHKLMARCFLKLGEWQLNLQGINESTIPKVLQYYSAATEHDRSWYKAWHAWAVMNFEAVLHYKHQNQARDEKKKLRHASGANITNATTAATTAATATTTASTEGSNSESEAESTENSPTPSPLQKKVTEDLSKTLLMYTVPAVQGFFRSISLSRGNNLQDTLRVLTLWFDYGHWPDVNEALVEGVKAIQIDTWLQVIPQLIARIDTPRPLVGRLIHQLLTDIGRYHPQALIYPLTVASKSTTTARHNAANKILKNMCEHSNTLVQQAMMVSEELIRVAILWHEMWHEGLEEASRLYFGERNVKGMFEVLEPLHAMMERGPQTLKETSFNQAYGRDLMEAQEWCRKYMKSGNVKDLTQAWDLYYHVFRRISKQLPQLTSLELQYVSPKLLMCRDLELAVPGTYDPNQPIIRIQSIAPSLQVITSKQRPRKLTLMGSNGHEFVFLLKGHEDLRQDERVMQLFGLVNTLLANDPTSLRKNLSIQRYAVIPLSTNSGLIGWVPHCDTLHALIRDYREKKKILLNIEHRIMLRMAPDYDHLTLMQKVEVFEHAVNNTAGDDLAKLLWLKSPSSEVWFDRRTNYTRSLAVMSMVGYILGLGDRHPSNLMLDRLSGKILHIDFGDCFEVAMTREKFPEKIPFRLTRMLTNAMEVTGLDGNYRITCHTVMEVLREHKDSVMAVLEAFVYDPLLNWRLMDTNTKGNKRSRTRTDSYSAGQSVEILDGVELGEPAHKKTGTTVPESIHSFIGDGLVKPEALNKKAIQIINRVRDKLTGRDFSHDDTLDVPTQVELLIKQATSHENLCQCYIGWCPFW

For `Nc1nn2c(nc(N)c3c(N)n[nH]c32)c1/N=N/c1ccccc1` [Compound 17], the inhibition at 10 µM ([1]; 10 μM, triplicate measurements) was 61%, the IC50 ([1]; mean ± SD of triplicate measurements) was < 10 µM and 7.59 µM and the IC50 [2] was 2.74 µM. It also gave an IC50 (C6 (Glioma cell)) of 11.1 µM, an IC50 [3] of 3.5 µM and an IC50 [4] of 1.9 µM. For the same compound, the “P-Akt Ser473” value [5] was “can reduce P-Akt Ser473”, the “% of apoptotic cells” value (HeLa cells; 2.74 μM) was 6.5% and the “% of apoptotic cells” value (HeLa cells; 5.48 μM) was 7.7%.
